Where two headings read alike, the source gives them in different places.
Assays:
[1] = snar bond, 15-membered ring
[2] = biological target: CFTR-mediated chloride transport (Homo sapiens, UniProt P13569); format: cell-based; conditions: enteroid cells incubated with test compound 18-24 hours, acute 10 μM forskolin and 300 nM Compound III; for Max. Activity: % of chloride transport with 3 μM Compound A, 3 μM Compound II and 300 nM acute Compound III triple combination control
Method in brief: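 Human intestinal enteroid cells incubated with compound 18–24 h at 37° C., then membrane potential dye (FLIPR) read 15 min after chloride-free stimulation with 10 μM forskolin, 100 μM IBMX and 300 nM Compound III. AUC expressed as % of triple-combination control (3 μM Compound A, 3 μM Compound II, 300 nM Compound III).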

Chain of CFTR-mediated chloride transport (P13569 whole entry, looked up): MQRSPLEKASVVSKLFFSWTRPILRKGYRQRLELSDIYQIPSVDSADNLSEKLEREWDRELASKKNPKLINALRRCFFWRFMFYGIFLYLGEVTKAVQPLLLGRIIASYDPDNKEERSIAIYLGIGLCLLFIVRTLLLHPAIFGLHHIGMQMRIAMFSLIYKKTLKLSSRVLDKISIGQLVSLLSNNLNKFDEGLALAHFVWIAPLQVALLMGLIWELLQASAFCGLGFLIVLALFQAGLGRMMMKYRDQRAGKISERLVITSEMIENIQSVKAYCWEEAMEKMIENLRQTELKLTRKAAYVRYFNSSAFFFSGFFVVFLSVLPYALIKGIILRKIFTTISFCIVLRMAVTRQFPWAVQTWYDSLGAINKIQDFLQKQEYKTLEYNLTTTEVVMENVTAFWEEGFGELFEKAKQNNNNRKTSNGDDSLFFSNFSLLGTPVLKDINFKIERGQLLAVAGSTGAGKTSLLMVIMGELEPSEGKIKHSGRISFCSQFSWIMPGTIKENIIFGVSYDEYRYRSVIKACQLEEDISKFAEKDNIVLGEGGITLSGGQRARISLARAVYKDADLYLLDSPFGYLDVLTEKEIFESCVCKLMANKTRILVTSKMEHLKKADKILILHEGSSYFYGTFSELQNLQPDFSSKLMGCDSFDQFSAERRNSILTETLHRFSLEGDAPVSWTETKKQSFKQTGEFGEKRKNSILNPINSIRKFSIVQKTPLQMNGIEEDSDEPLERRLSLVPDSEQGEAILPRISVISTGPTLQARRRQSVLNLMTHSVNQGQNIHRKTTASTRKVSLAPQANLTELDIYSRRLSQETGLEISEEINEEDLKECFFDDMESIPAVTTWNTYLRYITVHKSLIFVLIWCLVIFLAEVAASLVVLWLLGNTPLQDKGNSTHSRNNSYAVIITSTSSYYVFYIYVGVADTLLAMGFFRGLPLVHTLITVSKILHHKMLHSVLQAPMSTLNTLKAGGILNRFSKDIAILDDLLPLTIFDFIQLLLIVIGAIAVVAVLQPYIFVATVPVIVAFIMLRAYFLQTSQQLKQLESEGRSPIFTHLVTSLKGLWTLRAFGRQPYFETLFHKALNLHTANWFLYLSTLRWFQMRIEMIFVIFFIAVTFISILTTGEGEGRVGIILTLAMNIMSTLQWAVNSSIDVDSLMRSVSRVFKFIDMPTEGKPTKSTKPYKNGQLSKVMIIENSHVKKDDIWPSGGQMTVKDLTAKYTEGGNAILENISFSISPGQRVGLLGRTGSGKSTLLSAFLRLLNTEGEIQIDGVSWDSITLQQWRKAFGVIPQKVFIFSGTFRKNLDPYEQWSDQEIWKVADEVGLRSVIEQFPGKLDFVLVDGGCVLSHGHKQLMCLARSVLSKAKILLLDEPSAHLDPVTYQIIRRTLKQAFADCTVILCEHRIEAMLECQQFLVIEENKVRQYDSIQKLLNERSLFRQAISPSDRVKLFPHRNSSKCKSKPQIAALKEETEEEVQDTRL

SMILES	ring closure, isolated yield ([1]; from [2H]C([2H])([2H])C1(C([2H])([2H])[2H])C[C@H](CCCNc2cccc(S(=O)(=O)NC(=O)c3ccc(-n4ccc(OCCC5C6(CC6)C56CC6)n4)nc3Cl)n2)CN1, K2CO3, NMP, 53.5 mM, 150.0 °C) [%]	EC50 [2] [nM]	Max. Activity [2]	ring closure, isolated yield ([1]; from [2H]C([2H])(COc1ccn(-c2ccc(C(=O)NS(=O)(=O)c3cccc(NCCC[C@@H]4CNC(C)(C)C4)n3)c(Cl)n2)n1)C([2H])([2H])C1(C(F)(F)F)CC1, K2CO3, NMP, 20.8 mM, 155.0 °C, 18.0 h) [%]	ring closure, isolated yield ([1]; from [2H]C([2H])([2H])C1(C([2H])([2H])[2H])C[C@H](CCCNc2cccc(S(=O)(=O)NC(=O)c3ccc(-n4ccc(OCCCC5(C(F)(F)F)CC5)n4)nc3Cl)n2)CN1, K2CO3, NMP, 41.5 mM, 135.0 °C, 22.0 h) [%]	ring closure, isolated yield ([1]; from CC(C)(C)OC(=O)N1C[C@@H](CCCNc2cccc(S(=O)(=O)NC(=O)c3ccc(-n4ccc(OCCC(O[Si](C)(C)C(C)(C)C)C5(C(F)(F)F)CC5)n4)nc3Cl)n2)CC1(C)C, K2CO3/CsF/3A MS, DMSO, 41.7 mM, 150.0 °C, 2 steps) [%]
[2H]C([2H])([2H])C1(C([2H])([2H])[2H])C[C@@H]2CCCNc3cccc(n3)S(=O)(=O)NC(=O)c3ccc(-n4ccc(OCCC5C6(CC6)C56CC6)n4)nc3N1C2 [Compound 274, (14S)-8-[3-(2-{Dispiro[2.0.2.1]heptan-7-yl}ethoxy)-1H-pyrazol-1-yl]-12,12-di(trideuterio)methyl-2λ^6-thia-3,9,11,18,23-pentaazatetracyclo[17.3.1.111,14.05,10]tetracosa-1(23),5,7,9,19,21-hexaene-2,2,4-trione]	47	< 1000	+++ (+++ is >60%)			
[2H]C([2H])(COc1ccn(-c2ccc3c(n2)N2C[C@@H](CCCNc4cccc(n4)S(=O)(=O)NC3=O)CC2(C)C)n1)C([2H])([2H])C1(C(F)(F)F)CC1 [Compound 287, (14S)-12,12-dimethyl-8-(3-{3-[1-(trifluoromethyl)cyclopropyl]-2,2,3,3-tetradeuterio-propoxy}-1H-pyrazol-1-yl)-2λ^6-thia-3,9,11,18,23-pentaazatetracyclo[17.3.1.111,14.05,10]tetracosa-1(22),5,7,9,19(23),20-hexaene-2,2,4-trione]		< 1000	++ (++ is 30-60%)	73		
[2H]C([2H])([2H])C1(C([2H])([2H])[2H])C[C@@H]2CCCNc3cccc(n3)S(=O)(=O)NC(=O)c3ccc(-n4ccc(OCCCC5(C(F)(F)F)CC5)n4)nc3N1C2 [Compound 292, (14S)-12,12-di(trideuterio)methyl-8-(3-{3-[1-(trifluoromethyl)cyclopropyl]propoxy}-1H-pyrazol-1-yl)-2λ^6-thia-3,9,11,18,23-pentaazatetracyclo[17.3.1.111,14.05,10]tetracosa-1(22),5,7,9,19(23),20-hexaene-2,2,4-trione]		< 1000	+++ (+++ is >60%)		27	
CC1(C)C[C@@H]2CCCNc3cccc(n3)S(=O)(=O)NC(=O)c3ccc(-n4ccc(OCCC(O)C5(C(F)(F)F)CC5)n4)nc3N1C2 (stereo partly drawn) [Compound 295, (14S)-8-(3-{3-hydroxy-3-[1-(trifluoromethyl)cyclopropyl]propoxy}-1H-pyrazol-1-yl)-12,12-dimethyl-2λ^6-thia-3,9,11,18,23-pentaazatetracyclo[17.3.1.111,14.05,10]tetracosa-1(22),5,7,9,19(23),20-hexaene-2,2,4-trione]		< 1000	++ (++ is 30-60%)			46

From US11866450B2, “Modulators of Cystic Fibrosis Transmembrane Conductance regulator, pharmaceutical compositions, methods of treatment, and process for making the modulators” (priority 2018, dated 2024)
